Where two headings read alike, the source gives them in different places.
Experiments:
Test in all cases: Growth inhibition GI50 in vitro (CCK8/MTT, 72 h)
[1] = test system: A431 (EGFR WT, amplification and high expression); format: cell-based, human; settings: Homo sapiens, A-431
Calu-3 (Her2 amp) = format: cell-based; settings: Homo sapiens
Description: Human lung adenocarcinoma cell line Calu-3 (ATCC) was cultured with 1×MEM complete medium (10% FBS, 1% double-antibiotics, 1% NEAA (Gibco), 2 mM glutamine and 1 mM of sodium pyruvate). Human breast cancer cell line SK-BR-3 was cultured with McCOY'S5A complete medium (10% FBS). Human colon cancer cell line SNU1040 (HER2 V777M positive) (ATCC) and human bronchoalveolar adenocarcinoma cell line NCI-H1781 (expressing HER2 exon 20 G776VC mutation) (ATCC) were cultured with 1×RPMI1640 complete medium (10% FBS), respectively.
The suspension cells were collected by centrifugation. The supernatant was discard and the cell pellet was resuspended and counted. Different cell concentrations (5˜10×10^4 cells/mL) were prepared according to the growth cycle of each cell line and then seeded on a 96-well plate (Corning), 100 μL/well. The cells were incubated over night at 37° C., 5% CO2. The compounds were added to the cells on the second day with 2 wells in parallel. The final concentration of organic solvent shall not exceed 1%. The cells were continually incubated for 72 h, and then subjected to MTT assay.
The present compounds and the reference compounds were dissolved with DMSO (Sigma), respectively. […] The storage concentration of compounds was 10 mM and kept at −20° C. They were diluted by 2 times or 10 times with serial dilution before using.
Dojindo CCK8 reagent kit was used as MTT assay. […] FC meter was used as microplate reader.
Adherent cell culture medium was discard and immediately replaced with fresh prepared medium which contains 10% CCK8 reagent (100 μL/well). For the suspension cells, CCK8 was directly added to 10% of the final concentration. The cells were continually incubated for 1˜4 h. When the color of control wells turned to dark yellow, the absorption value was measured at OD450 nm. The cell growth rate was calculated according to the following formula: cell growth rate (%)=100*(T−T0)/(C−T0), T=optical density of drug treatment cell well—optical density of blank control well; T0=optical density of cell well before drug treatment—optical density of blank control well; C=optical density of cell well of solvent control group—optical density of blank control well. […] The experiment was independently repeated 1˜3 times, and subject to biological statistical analysis.

AU565 (Her2 amp) = format: cell-based, human; settings: Homo sapiens
H292 (EGFR WT) = format: cell-based; settings: Homo sapiens, NCI-H292
SK-BR-3 (Her2 amp) = format: cell-based, human; settings: Homo sapiens
PC-9 (EGFR dE746-A750) = format: cell-based, human; settings: Homo sapiens
H1975 (EGFR L858R/T790M) = format: cell-based, human; settings: Homo sapiens, NCI-H1975
HCC827 (EGFR dE746-A750) = format: cell-based, human; settings: Homo sapiens
[2] = test system: PC-9ER (EGFR delE746-A750/T790M); format: cell-based, human; settings: Homo sapiens, PC-9/ER; EGFR mutant cell line; range of GI50; read-out: GI50 PC9ER
N87 (HER2 Amp) = format: cell-based, human; settings: Homo sapiens
[3] = test system: H1299 (EGFR wt, Nras Q61K); format: cell-based, human; settings: Homo sapiens, NCI-H1299; EGFR wild type cell line; range of GI50; read-out: GI50 H1299
A549 (EGFR WT) = format: cell-based, human; settings: Homo sapiens, A549
[4] = test system: H460 (EGFR wt, Kras G61H); format: cell-based, human; settings: Homo sapiens, NCI-H460; EGFR wild type cell line; range of GI50; read-out: GI50 H460
[5] = EGFR wild type cell line, range of GI50, read-out: GI50 A431
[6] = AU565, HER2 positive cell line, range of GI50, read-out: GI50 AU-565
[7] = SK-BR-3, HER2 positive cell line, range of GI50, read-out: GI50 SK-BR-3
[8] = EGFR mutant cell line, range of GI50, read-out: GI50 PC-9
[9] = EGFR mutant cell line, range of GI50, read-out: GI50 H1975
[10] = HCC827, EGFR mutant cell line, range of GI50, read-out: GI50 HCC827
[11] = HER2 positive cell line, range of GI50, read-out: GI50 N87
[12] = Table 13, 72 h, read-out: Range of GI50 A549 (EGFR WT)
[13] = Table 15, 1000 nM to 0.03 nM serial dilution, read-out: GI50 A549 (EGFR WT)
[14] = Calu-3, Table 16, 1000 nM to 0.03 nM serial dilution, read-out: GI50 Calu3 (HER2 amp)
[15] = Table 15, 1000 nM to 0.03 nM serial dilution, read-out: GI50 H292 (EGFR WT)
[16] = Table 13, 72 h, read-out: Range of GI50 PC-9 (EGFR dE746-A750)
[17] = Table 15, 1000 nM to 0.03 nM serial dilution, read-out: GI50 PC-9 (EGFR dE746-A750)
[18] = Table 13, 72 h, read-out: Range of GI50 H1975 (EGFR L858R/T790M)
[19] = Table 15, 1000 nM to 0.03 nM serial dilution, read-out: GI50 H1975 (EGFR L858R/T790M)
[20] = Table 13, 72 h, read-out: Range of GI50 N87 (HER2 Amp)
[21] = Table 16, 1000 nM to 0.03 nM serial dilution, read-out: GI50 N87 (HER2 amp)

| GI50 [1, 5] | GI50 (SK-BR-3 (Her2 amp); [7]) | GI50 (PC-9 (EGFR dE746-A750); [8]) | GI50 (H1975 (EGFR L858R/T790M); [9]) | GI50 (HCC827 (EGFR dE746-A750); [10]) | GI50 [2] | GI50 (A549 (EGFR WT); [12]) | GI50 (A549 (EGFR WT); [13]) | GI50 (Calu-3 (Her2 amp); [14]) | GI50 (H292 (EGFR WT); [15]) | GI50 (PC-9 (EGFR dE746-A750); [16]) | GI50 (PC-9 (EGFR dE746-A750); [17]) | GI50 (H1975 (EGFR L858R/T790M); [18]) | GI50 (H1975 (EGFR L858R/T790M); [19]) | SMILES | GI50 (AU565 (Her2 amp); [6]) | GI50 (N87 (HER2 Amp); [11]) | GI50 (N87 (HER2 Amp); [20]) | GI50 (N87 (HER2 Amp); [21]) | also measured |
| --- | --- | --- | --- | --- | --- | --- | --- | --- | --- | --- | --- | --- | --- | --- | --- | --- | --- | --- | --- |
| 100 to 1000 nM | 10 to 100 nM | < 10 nM | < 10 nM | < 10 nM | < 10 nM |  |  |  |  |  |  |  |  | C=CC(=O)Nc1cc(Nc2ncnc(Nc3cccc(Br)c3)n2)c(OC)cc1N1CCC(N2CCCC2)CC1 [Compound 118] | < 10 nM | < 10 nM |  |  | GI50 ([1]; A431, EGFR wt, read-out: GI50): 156 nM; GI50 (Calu-3 (Her2 amp); Calu-3, EGFR wt, Her2 amp, read-out: GI50): 14.6 nM; GI50 (AU565 (Her2 amp); AU565, EGFR wt, Her2 amp, read-out: GI50): 4.8 nM; GI50 (H292 (EGFR WT); H292, EGFR wt, read-out: GI50): > 1000 nM; GI50 (SK-BR-3 (Her2 amp); SK-BR-3, EGFR wt, Her2 amp, read-out: GI50): 29.2 nM; GI50 (PC-9 (EGFR dE746-A750); PC-9, EGFR dE746-A750, read-out: GI50): 2.38 nM; GI50 (H1975 (EGFR L858R/T790M); H1975, EGFR L858R/T790M, read-out: GI50): 9.4 nM; GI50 (HCC827 (EGFR dE746-A750); HCC827, EGFR dE746-A750, read-out: GI50): 2.3 nM; GI50 (N87 (HER2 Amp); N87, EGFR wt, Her2 amp, read-out: GI50): 4.8 nM |
|  |  |  |  |  |  | > 1000 nM | > 1000 nM |  | > 1000 nM | < 10 nM | 9.87 nM | < 10 nM | 8.96 nM | C=CC(=O)Nc1cc(Nc2cc(Nc3ccc(OCC4CCOCC4)c(Cl)c3)ncn2)c(OC)cc1N(C)CCN(C)C [Compound 216, N-(5-(6-(3-chloro-4-(tetrahydropyran-4-yl-methoxyl)-phenylamino)-pyrimidin-4-ylamino)-2-((2-dimethylaminoethyl)-methyl-amino)-4-methoxyphenyl)-acrylamide] |  |  | < 10 nM | 19.5 nM |  |

The remaining lines, values behind:

| SMILES | GI50 [1, 5] | GI50 (SK-BR-3 (Her2 amp); [7]) | GI50 (PC-9 (EGFR dE746-A750); [8]) | GI50 (H1975 (EGFR L858R/T790M); [9]) | GI50 (HCC827 (EGFR dE746-A750); [10]) | GI50 [2] | GI50 (A549 (EGFR WT); [12]) | GI50 (A549 (EGFR WT); [13]) | GI50 (Calu-3 (Her2 amp); [14]) | GI50 (H292 (EGFR WT); [15]) | GI50 (PC-9 (EGFR dE746-A750); [16]) | GI50 (PC-9 (EGFR dE746-A750); [17]) | GI50 (H1975 (EGFR L858R/T790M); [18]) | GI50 (H1975 (EGFR L858R/T790M); [19]) | GI50 (AU565 (Her2 amp); [6]) | GI50 (N87 (HER2 Amp); [11]) | GI50 (N87 (HER2 Amp); [20]) | GI50 (N87 (HER2 Amp); [21]) | also measured |
| --- | --- | --- | --- | --- | --- | --- | --- | --- | --- | --- | --- | --- | --- | --- | --- | --- | --- | --- | --- |
| C=CC(=O)Nc1cc(Nc2cc(-c3cn(C(C)C)c4ccc(F)cc34)ncn2)c(OC)cc1N(C)CCN(C)C [Compound 191, N-(5-(6-(5-fluoro-1-isopropyl-1H-indol-3-yl)-pyrimidin-4-ylamino)-4-methoxyl-2-((2-dimethylamino-ethyl)-methyl-amino)-phenyl)-acrylamide] | 100 to 1000 nM | < 10 nM | < 10 nM | < 10 nM | < 10 nM | < 10 nM |  |  |  |  |  |  |  |  | 10 to 100 nM | < 10 nM |  |  | GI50 [3]: > 1000 nM; GI50 (A549 (EGFR WT); EGFR wild type cell line, range of GI50, read-out: GI50 A549): > 1000 nM; GI50 [4]: > 1000 nM |
| C=CC(=O)Nc1cc(Nc2nccc(-n3ccc4c(OCCOC)cccc43)n2)c(OC)cc1N(C)CCN(C)C [Compound 205, N-(5-(4-(4-(2-methoxyl-ethoxyl)-1H-indol-1-yl)-pyrimidin-2-ylamino)-2-(2-(dimethylamino-ethyl)-methyl-amino)-4-methoxyl-phenyl)-acrylamide] |  |  |  |  |  |  | > 1000 nM | > 1000 nM | 7.88 nM | > 1000 nM | < 10 nM | 7.81 nM | < 10 nM | 4.9 nM |  |  | < 10 nM | 5.61 nM |  |
| C=CC(=O)Nc1cc(Nc2cc(Nc3cc(F)c(OC)c(Cl)c3)ncn2)c(OC)cc1N(C)CCN(C)C [Compound 236, N-(5-(6-(3-chloro-5-fluoro-4-methoxyphenylamino)-pyrimidin-4-yl-amino)-2-((2-dimethylamino-ethyl)-methyl-amino)-4-methoxyl-phenyl)-acrylamide] |  |  |  |  |  |  | > 1000 nM | > 1000 nM | 1.46 nM | > 1000 nM | < 10 nM | 1.49 nM | < 10 nM | 3.88 nM |  |  | < 10 nM | 0.82 nM |  |

From patent US10342796B2, “Acrylanilide derivative, preparation method, and applications thereof in pharmacy” (Ancureall Pharmaceutical (Shanghai) Co., Ltd., priority 2015, dated 2019)
